Source: patent publication US20130303509A1, “NAMPT INHIBITORS” (AbbVie Inc., priority 2012, published 2013)

Tested on: PC3 cells
Experiment: NAMPT Cell Proliferation Assay
Type: cell-based
Details: Homo sapiens, PC-3, 120 h, 5 days incubation, cell viability by Cell Titer Glo
How it was run: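 Five-day CellTiter-Glo viability readout in PC3 cells grown in RPMI/10% heat-inactivated FBS. Compounds added after overnight attachment as a 10-fold dilution series, […]. Percent inhibition fitted to sigmoidal dose-response to derive IC50.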

IC50	Compound
7.06 nM	Cc1cc(C)cc(CC(=O)N2CCC(c3ccc(NC(=O)C4CN(c5cccnn5)C4)cc3)CC2)c1 [Example 372, N-(4-{1-[(3,5-dimethylphenyl)acetyl]piperidin-4-yl}phenyl)-1-(pyridazin-3-yl)azetidine-3-carboxamide]
5.95 nM	O=C(Nc1ccc(C2CCN(C(=O)Cc3cc(F)ccc3F)CC2)cc1)C1CN(c2cccnn2)C1 [Example 373, N-(4-{1-[(2,5-difluorophenyl)acetyl]piperidin-4-yl}phenyl)-1-(pyridazin-3-yl)azetidine-3-carboxamide]
6.32 nM	O=C(Nc1ccc(C2CCN(C(=O)Cc3ccc(Cl)c(Cl)c3)CC2)cc1)C1CN(c2cccnn2)C1 [Example 374, N-(4-{1-[(3,4-dichlorophenyl)acetyl]piperidin-4-yl}phenyl)-1-(pyridazin-3-yl)azetidine-3-carboxamide]
0.87 nM	O=C(Nc1ccc(C2CCN(C(=O)c3ccoc3)CC2)cc1)C1CN(c2cccnn2)C1 [Example 375, N-{4-[1-(furan-3-ylcarbonyl)piperidin-4-yl]phenyl}-1-(pyridazin-3-yl)azetidine-3-carboxamide]
0.62 nM	O=C(Nc1ccc(C2CCN(C(=O)c3cccs3)CC2)cc1)C1CN(c2cccnn2)C1 [Example 376, 1-(pyridazin-3-yl)-N-{4-[1-(thiophen-2-ylcarbonyl)piperidin-4-yl]phenyl}azetidine-3-carboxamide]
2.13 nM	Cc1ccc(C(=O)N2CCC(c3ccc(NC(=O)C4CN(c5cccnn5)C4)cc3)CC2)s1 [Example 377, N-(4-{1-[(5-methylthiophen-2-yl)carbonyl]piperidin-4-yl}phenyl)-1-(pyridazin-3-yl)azetidine-3-carboxamide]
7.09 nM	Cc1cnc(C(=O)N2CCC(c3ccc(NC(=O)C4CN(c5cccnn5)C4)cc3)CC2)cn1 [Example 378, N-(4-{1-[(5-methylpyrazin-2-yl)carbonyl]piperidin-4-yl}phenyl)-1-(pyridazin-3-yl)azetidine-3-carboxamide]
1.07 nM	CC1(C(=O)N2CCC(c3ccc(NC(=O)C4CN(c5cccnn5)C4)cc3)CC2)CC1 [Example 379, N-(4-{1-[(1-methylcyclopropyl)carbonyl]piperidin-4-yl}phenyl)-1-(pyridazin-3-yl)azetidine-3-carboxamide]
7.57 nM	CCOCCC(=O)N1CCC(c2ccc(NC(=O)C3CN(c4cccnn4)C3)cc2)CC1 [Example 380, N-{4-[1-(3-ethoxypropanoyl)piperidin-4-yl]phenyl}-1-(pyridazin-3-yl)azetidine-3-carboxamide]
1.87 nM	O=C(Nc1ccc(C2CCN(C(=O)C3(c4ccccc4)CC3)CC2)cc1)C1CN(c2cccnn2)C1 [Example 381, N-(4-{1-[(1-phenylcyclopropyl)carbonyl]piperidin-4-yl}phenyl)-1-(pyridazin-3-yl)azetidine-3-carboxamide]
8.99 nM	O=C(Nc1ccc(C2CCN(C(=O)CSc3ncccn3)CC2)cc1)C1CN(c2cccnn2)C1 [Example 382, 1-(pyridazin-3-yl)-N-(4-{1-[(pyrimidin-2-ylsulfanyl)acetyl]piperidin-4-yl}phenyl)azetidine-3-carboxamide]
62.7 nM	CC(=O)N1CCC(C(=O)N2CCC(c3ccc(NC(=O)C4CN(c5cccnn5)C4)cc3)CC2)CC1 [Example 383, N-(4-{1-[(1-acetylpiperidin-4-yl)carbonyl]piperidin-4-yl}phenyl)-1-(pyridazin-3-yl)azetidine-3-carboxamide]
8.27 nM	O=C(Nc1ccc(C2CCN(C(=O)Cc3cc(F)cc(F)c3)CC2)cc1)C1CN(c2cccnn2)C1 [Example 384, N-(4-{1-[(3,5-difluorophenyl)acetyl]piperidin-4-yl}phenyl)-1-(pyridazin-3-yl)azetidine-3-carboxamide]
23.2 nM	CC(=O)N[C@@H](CC(C)C)C(=O)N1CCC(c2ccc(NC(=O)C3CN(c4cccnn4)C3)cc2)CC1 [Example 385, N-{4-[1-(N-acetyl-L-leucyl)piperidin-4-yl]phenyl}-1-(pyridazin-3-yl)azetidine-3-carboxamide]
3.18 nM	O=C(Nc1ccc(C2CCN(C(=O)C(c3ccccc3)c3ccccc3)CC2)cc1)C1CN(c2cccnn2)C1 [Example 386, N-{4-[1-(diphenylacetyl)piperidin-4-yl]phenyl}-1-(pyridazin-3-yl)azetidine-3-carboxamide]
2.2 nM	Cc1c(F)cccc1C(=O)N1CCC(c2ccc(NC(=O)C3CN(c4cccnn4)C3)cc2)CC1 [Example 387, N-{4-[1-(3-fluoro-2-methylbenzoyl)piperidin-4-yl]phenyl}-1-(pyridazin-3-yl)azetidine-3-carboxamide]
0.88 nM	Cc1ccc(F)cc1C(=O)N1CCC(c2ccc(NC(=O)C3CN(c4cccnn4)C3)cc2)CC1 [Example 388, N-{4-[1-(5-fluoro-2-methylbenzoyl)piperidin-4-yl]phenyl}-1-(pyridazin-3-yl)azetidine-3-carboxamide]
7.17 nM	Cc1ccc(C(=O)N2CCC(c3ccc(NC(=O)C4CN(c5cccnn5)C4)cc3)CC2)cc1F [Example 389, N-{4-[1-(3-fluoro-4-methylbenzoyl)piperidin-4-yl]phenyl}-1-(pyridazin-3-yl)azetidine-3-carboxamide]

IC50	Compound
1.5 nM	O=C(Nc1ccc(C2CCN(C(=O)c3cccc(F)c3F)CC2)cc1)C1CN(c2cccnn2)C1 [Example 390, N-{4-[1-(2,3-difluorobenzoyl)piperidin-4-yl]phenyl}-1-(pyridazin-3-yl)azetidine-3-carboxamide]
5.99 nM	O=C(Nc1ccc(C2CCN(C(=O)c3ccc(F)cc3F)CC2)cc1)C1CN(c2cccnn2)C1 [Example 391, N-{4-[1-(2,4-difluorobenzoyl)piperidin-4-yl]phenyl}-1-(pyridazin-3-yl)azetidine-3-carboxamide]
3.54 nM	CC(C)c1ccc(C(=O)N2CCC(c3ccc(NC(=O)C4CN(c5cccnn5)C4)cc3)CC2)cc1 [Example 392, N-(4-{1-[4-(propan-2-yl)benzoyl]piperidin-4-yl}phenyl)-1-(pyridazin-3-yl)azetidine-3-carboxamide]
3.72 nM	CC(C)(C)c1ccc(C(=O)N2CCC(c3ccc(NC(=O)C4CN(c5cccnn5)C4)cc3)CC2)cc1 [Example 393, N-{4-[1-(4-tert-butylbenzoyl)piperidin-4-yl]phenyl}-1-(pyridazin-3-yl)azetidine-3-carboxamide]
1.99 nM	O=C(Nc1ccc(C2CCN(C(=O)c3cc(C(F)(F)F)ccc3F)CC2)cc1)C1CN(c2cccnn2)C1 [Example 394, N-(4-{1-[2-fluoro-5-(trifluoromethyl)benzoyl]piperidin-4-yl}phenyl)-1-(pyridazin-3-yl)azetidine-3-carboxamide]
2.14 nM	O=C(Nc1ccc(C2CCN(C(=O)c3cc(C(F)(F)F)ccc3Cl)CC2)cc1)C1CN(c2cccnn2)C1 [Example 395, N-(4-{1-[2-chloro-5-(trifluoromethyl)benzoyl]piperidin-4-yl}phenyl)-1-(pyridazin-3-yl)azetidine-3-carboxamide]
68.5 nM	O=C(Nc1ccc(O[C@@H]2CCN(C(=O)c3ccc(F)cc3)C2)cc1)C1CN(c2ccnnc2)C1 [Example 396, N-(4-{[(3R)-1-(4-fluorobenzoyl)pyrrolidin-3-yl]oxy}phenyl)-1-(pyridazin-4-yl)azetidine-3-carboxamide]
3.35 nM	O=C(Nc1ccc(C2CCN(C(=O)CC3CCCC3)CC2)cc1)C1CN(c2cccnn2)C1 [Example 397, N-{4-[1-(cyclopentylacetyl)piperidin-4-yl]phenyl}-1-(pyridazin-3-yl)azetidine-3-carboxamide]
8.19 nM	Cc1ccc(OCC(=O)N2CCC(c3ccc(NC(=O)C4CN(c5cccnn5)C4)cc3)CC2)cc1 [Example 398, N-(4-{1-[(4-methylphenoxy)acetyl]piperidin-4-yl}phenyl)-1-(pyridazin-3-yl)azetidine-3-carboxamide]
6.35 nM	CC[C@H](C(=O)N1CCC(c2ccc(NC(=O)C3CN(c4cccnn4)C3)cc2)CC1)c1ccccc1 [Example 399, N-(4-{1-[(2S)-2-phenylbutanoyl]piperidin-4-yl}phenyl)-1-(pyridazin-3-yl)azetidine-3-carboxamide]
6.8 nM	O=C(Nc1ccc(C2CCN(C(=O)c3cc(F)cc(F)c3)CC2)cc1)C1CN(c2cccnn2)C1 [Example 400, N-{4-[1-(3,5-difluorobenzoyl)piperidin-4-yl]phenyl}-1-(pyridazin-3-yl)azetidine-3-carboxamide]
8.54 nM	O=C(Nc1ccc(C2CCN(C(=O)c3ccc(Cl)cc3)CC2)cc1)C1CN(c2cccnn2)C1 [Example 401, N-{4-[1-(4-chlorobenzoyl)piperidin-4-yl]phenyl}-1-(pyridazin-3-yl)azetidine-3-carboxamide]
1.68 nM	CC(C)(C)C(=O)N1CCC(c2ccc(NC(=O)C3CN(c4cccnn4)C3)cc2)CC1 [Example 402, N-{4-[1-(2,2-dimethylpropanoyl)piperidin-4-yl]phenyl}-1-(pyridazin-3-yl)azetidine-3-carboxamide]
4.1 nM	O=C(Nc1ccc(C2CCN(C(=O)Cc3cccc(C(F)(F)F)c3)CC2)cc1)C1CN(c2cccnn2)C1 [Example 403, 1-(pyridazin-3-yl)-N-[4-(1-{[3-(trifluoromethyl)phenyl]acetyl}piperidin-4-yl)phenyl]azetidine-3-carboxamide]
2.7 nM	O=C(Nc1ccc(C2CCN(C(=O)Cc3cccc(Cl)c3)CC2)cc1)C1CN(c2cccnn2)C1 [Example 404, N-(4-{1-[(3-chlorophenyl)acetyl]piperidin-4-yl}phenyl)-1-(pyridazin-3-yl)azetidine-3-carboxamide]
6.75 nM	O=C(Nc1ccc(C2CCN(C(=O)Cc3ccc(Cl)cc3Cl)CC2)cc1)C1CN(c2cccnn2)C1 [Example 405, N-(4-{1-[(2,4-dichlorophenyl)acetyl]piperidin-4-yl}phenyl)-1-(pyridazin-3-yl)azetidine-3-carboxamide]
7.42 nM	O=C(Nc1ccc(C2CCN(C(=O)c3cccc4ccccc34)CC2)cc1)C1CN(c2cccnn2)C1 [Example 406, N-{4-[1-(naphthalen-1-ylcarbonyl)piperidin-4-yl]phenyl}-1-(pyridazin-3-yl)azetidine-3-carboxamide]
